In patent publication US7396853B2, “2-phenyl-3,3,3-trifluoro-2-hydroxy-propionic acid derivatives” (Hoffmann-La Roche Inc., priority 2005, dated 2008):

Experiments:
human GABABR1aR2a [1] = biological target: T1, human GABABR1aR2a (Homo sapiens, UniProt O75899+Q9UBS5); assay: GABA shift assay (GABA concentration-response with and without 10 μM enhancer, FLIPR Ca2+ mobilization in CHO-GABABR1aR2a-Gα16 cell); type: cell-based; settings: GABA 0.0003-30 μM, log ratio
T1 construct: expressed in transfected cells
T1 sequence (Q9UBS5 15-961 limits assumed): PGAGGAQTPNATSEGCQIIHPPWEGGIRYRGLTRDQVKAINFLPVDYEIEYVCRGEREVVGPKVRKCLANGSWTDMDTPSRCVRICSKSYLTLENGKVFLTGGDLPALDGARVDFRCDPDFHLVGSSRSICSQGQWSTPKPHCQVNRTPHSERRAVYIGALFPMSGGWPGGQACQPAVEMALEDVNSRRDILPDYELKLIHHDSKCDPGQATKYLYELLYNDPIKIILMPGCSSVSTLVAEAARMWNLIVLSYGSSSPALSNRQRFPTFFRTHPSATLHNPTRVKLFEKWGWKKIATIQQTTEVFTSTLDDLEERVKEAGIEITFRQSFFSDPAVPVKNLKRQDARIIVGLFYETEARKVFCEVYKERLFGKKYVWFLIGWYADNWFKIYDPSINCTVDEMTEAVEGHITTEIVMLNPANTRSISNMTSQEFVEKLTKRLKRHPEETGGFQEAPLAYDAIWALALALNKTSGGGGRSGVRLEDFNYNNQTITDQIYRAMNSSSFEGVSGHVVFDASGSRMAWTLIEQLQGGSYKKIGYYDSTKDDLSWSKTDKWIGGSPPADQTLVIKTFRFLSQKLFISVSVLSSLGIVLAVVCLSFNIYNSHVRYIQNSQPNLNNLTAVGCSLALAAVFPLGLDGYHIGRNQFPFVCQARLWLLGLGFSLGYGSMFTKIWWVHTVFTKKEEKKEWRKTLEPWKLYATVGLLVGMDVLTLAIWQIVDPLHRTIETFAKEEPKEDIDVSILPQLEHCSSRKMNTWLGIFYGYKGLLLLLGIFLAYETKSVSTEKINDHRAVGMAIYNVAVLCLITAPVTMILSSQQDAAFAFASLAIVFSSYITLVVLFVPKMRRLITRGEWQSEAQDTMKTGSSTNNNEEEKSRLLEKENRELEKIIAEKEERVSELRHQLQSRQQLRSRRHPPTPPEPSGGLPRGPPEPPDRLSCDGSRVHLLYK
T1 sequence (O75899 42-941): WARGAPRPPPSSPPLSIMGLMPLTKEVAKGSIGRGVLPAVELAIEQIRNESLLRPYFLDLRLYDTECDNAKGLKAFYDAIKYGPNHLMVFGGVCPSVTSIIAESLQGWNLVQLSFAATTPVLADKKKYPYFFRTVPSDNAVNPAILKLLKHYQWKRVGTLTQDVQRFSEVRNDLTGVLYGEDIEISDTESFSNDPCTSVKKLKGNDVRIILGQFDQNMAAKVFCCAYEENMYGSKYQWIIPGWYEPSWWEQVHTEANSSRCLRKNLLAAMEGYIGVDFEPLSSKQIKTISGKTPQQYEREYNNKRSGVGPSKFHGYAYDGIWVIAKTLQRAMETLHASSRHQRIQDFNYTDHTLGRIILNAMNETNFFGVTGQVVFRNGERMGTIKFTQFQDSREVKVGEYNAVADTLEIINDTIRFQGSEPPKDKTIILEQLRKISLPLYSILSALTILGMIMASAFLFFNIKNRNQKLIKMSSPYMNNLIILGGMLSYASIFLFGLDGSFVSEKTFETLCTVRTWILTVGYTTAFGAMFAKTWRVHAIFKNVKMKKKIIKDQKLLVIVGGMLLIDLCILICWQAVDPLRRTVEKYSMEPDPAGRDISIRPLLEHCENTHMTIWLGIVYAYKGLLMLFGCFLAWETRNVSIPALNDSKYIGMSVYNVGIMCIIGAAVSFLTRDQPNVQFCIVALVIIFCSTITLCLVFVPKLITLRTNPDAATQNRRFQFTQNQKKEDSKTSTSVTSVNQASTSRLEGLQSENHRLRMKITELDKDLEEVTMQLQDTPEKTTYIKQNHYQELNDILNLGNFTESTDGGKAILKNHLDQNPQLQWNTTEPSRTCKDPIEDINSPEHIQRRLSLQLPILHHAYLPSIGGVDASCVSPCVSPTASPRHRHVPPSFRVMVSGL
Protocol: (§1) Intracellular Ca^2+ Mobilization Assay
(§2) The Chinese Hamster Ovary (CHO) cells stably expressing human GABABR1aR2a and Gα16 were seeded at 5×10^4 cells/well in the poly-D-lysine treated, 96-well, black/clear-bottomed plates (BD Biosciences, Palo Alto, Calif.). […] Probenecid (250 mM) (catalog No. P8761) was from Sigma, Buchs, Switzerland. […] The enhancers were applied 15 min before the application of the GABA. For GABA shift assay, concentration-response curves of GABA (0.0003-30 μM) were determined in the absence and presence of 10 μM enhancer. […] Responses were measured as peak increase in fluorescence minus basal, normalized to the maximal stimulatory effect induced by 10 μM GABA alone (considered 100%) and 10 nM GABA alone (considered 0%).

human GABABR1aR2a [2] = biological target: T1, human GABABR1aR2a; assay: Intracellular Ca2+ mobilization assay in CHO-GABABR1aR2a-Gα16 cell (enhancer concentration-response at 10 nM GABA); type: cell-based; settings: for EC50: enhancer potency in presence of 10 nM GABA (EC10), CHO cells expressing human GABABR1aR2a and Gα16; for Emax: maximum enhancing effect in presence of 10 nM GABA (EC10), normalized to 10 μM GABA alone = 100%, 10 nM GABA alone = 0%, enhancer 0.001-30 μM applied 15 min before GABA
Protocol: as §1, §2

Row | SMILES | GABA shift Log [EC50 (GABA + 10 μM cp)/EC50 (GABA alone)] (human GABABR1aR2a [1]) | EC50 (human GABABR1aR2a [2]) [µM] | Emax (human GABABR1aR2a [2]) [%]
1 | CC(C)(C)c1cc(C(C)(C)C)c(O)c(C(O)(C(=O)O)C(F)(F)F)c1 (racemic) [Example 3, (R,S)-2-(3,5-Di-tert-butyl-2-hydroxy-phenyl)-3,3,3-trifluoro-2-hydroxy-propionic acid] | −1 | 0.32 | 70
2 | COC(=O)C(O)(c1cc(C(C)(C)C)cc(C(C)(C)C)c1)C(F)(F)F (racemic) [Example 7, (R,S)-2-(3,5-Di-tert-butyl-phenyl)-3,3,3-trifluoro-2-hydroxy-propionic acid methyl ester] | −0.9 | 2.1 | 66
3 | Cc1cc(C(C)(C)C)c2c(c1)C(O)(C(F)(F)F)C(=O)O2 (racemic) [Example 9, (R,S)-7-tert-Butyl-3-hydroxy-5-methyl-3-trifluoromethyl-3H-benzofuran-2-one] | −1.3 | 0.36 | 62
